How the values were obtained:
[1] = system: rat spinal nerve ligation (SNL)/Chung model of neuropathic pain; test: Spinal nerve ligation (SNL)/Chung model, thermal allodynia, cold plate test on lesioned paw; type: in vivo
Protocol: (§1) Objective: The efficacy of Compound A was assessed using the rat spinal nerve ligation (SNL)/Chung model of neuropathic pain. The SNL model in rats was developed as described previously (Chung J M, Kim H K, Chung K. “Segmental spinal nerve ligation model of neuropathic pain.” Methods Mol. Med. 99 (2004) 35-45).
Study Design. Briefly, on Day 0, von Frey and cold plate tests were used for baseline measurements of tactile and cold allodynia respectively. Post-baseline measurements, rats (171-209 g male Sprague Dawley) were anesthetized and an incision at the L4-S2 level was performed to expose the left L5 nerve. […] The wound was then sutured and the rats were allowed to recover. On Day 13, post-surgery baselines for tactile and cold allodynia were measured to verify neuropathic pain. Animals were assigned to treatment groups based on the post-surgery baseline score.
(§2) Dosing: For efficacy testing, Compound A was dosed orally once a day for 5 consecutive days from Day 14-18.
The cold plate apparatus was maintained at 4±1° C. and was surrounded by an acrylic glass enclosure. Rats were placed on the plate for a period of 5 minutes. The latency to 1st paw-withdrawal, total number of paw withdrawals, and total duration of withdrawal responses were recorded for the surgery hind paw.

[2] = system: rat spinal nerve ligation (SNL)/Chung model of neuropathic pain; test: Spinal nerve ligation (SNL)/Chung model, tactile allodynia, electronic von Frey test on lesioned paw; type: in vivo
Protocol: as §1
Study Design. Briefly, on Day 0, von Frey and cold plate tests were used for baseline measurements of tactile and cold allodynia respectively. Post-baseline measurements, rats (171-209 g male Sprague Dawley) were anesthetized and an incision at the L4-S2 level was performed to expose the left L5 nerve. A ligature was tied tightly around the L5 nerve (Chung et al.; R. Dost et al., “The anti-hyperalgesic activity of Retigabine is mediated by KCNQ potassium channel activation.” Naunyn-Schmiedeberg's Arch. Pharmacol. 369 (2004) 382-390; Gordon Blackburn-Munro et al., “The anticonvulsant retigabine attenuates nociceptive behaviors in rat models of persistent and neuropathic pain.” Eur. J Pharmacol. 460 (2003) 109-116; and Wu Y J et al., “Discovery of (S,E)-3-(2-fluorophenyl)-N-(1-(3-(pyridin-3-yloxy)phenyl)ethyl)-acrylamide as a potent and efficacious KCNQ2 (Kv7.2) opener for the treatment of neuropathic pain.” Bioorg Med. Chem. Lett. 23 (2013) 6188-91). The wound was then sutured and the rats were allowed to recover. On Day 13, post-surgery baselines for tactile and cold allodynia were measured to verify neuropathic pain. Animals were assigned to treatment groups based on the post-surgery baseline score.
as §2
Rats were placed under an inverted acrylic plastic box on a grid floor. The tip of an electronic von Frey probe was then applied with increasing force to the surgery hind paw and the force required to induce paw-withdrawal was automatically recorded. The procedure was carried out 3 times and the mean paw withdrawal force was calculated. The experimenter was double blinded to treatment.

[3] = Day 18 at 2 h, 8 mg/kg p.o. once daily Day 14-18
[4] = Day 18 at 2 h, 16 mg/kg p.o. once daily Day 14-18
[5] = Day 18 at 2 h, 24 mg/kg p.o. once daily Day 14-18

Cc1cc(N2CCc3cc(F)ccc3C2)cc(C)c1NC(=O)CC(C)(C)C [Compound A, N-[4-(6-fluoro-3,4-dihydro-TH-isoquinolin-2-yl)-2,6-dimethylphenyl]-3,3-dimethylbutanamide]
Latency to first paw-withdrawal (s), Mean ± s.e.m. ([1]; Day 14 at 2 h, 8 mg/kg p.o.): 226.8 ± 29.4 s
Latency to first paw-withdrawal, compared with Vehicle (p.o.), Δ% ([1]; Day 14 at 2 h, 8 mg/kg p.o.): +74%
Number of withdrawal responses, Mean ± s.e.m. ([1]; Day 14 at 2 h, 8 mg/kg p.o.): 2.1 ± 0.8
Number of withdrawal responses, compared with Vehicle (p.o.), Δ% ([1]; Day 14 at 2 h, 8 mg/kg p.o.): −79%
Total duration of withdrawal responses (s), Mean ± s.e.m. ([1]; Day 14 at 2 h, 8 mg/kg p.o.): 3.4 ± 3.4 s
Total duration of withdrawal responses, compared with Vehicle (p.o.), Δ% ([1]; Day 14 at 2 h, 8 mg/kg p.o.): +55%
Latency to first paw-withdrawal (s), Mean ± s.e.m. ([1]; Day 14 at 2 h, 16 mg/kg p.o.): 214.9 ± 29.2 s
Latency to first paw-withdrawal, compared with Vehicle (p.o.), Δ% ([1]; Day 14 at 2 h, 16 mg/kg p.o.): +65%
Number of withdrawal responses, Mean ± s.e.m. ([1]; Day 14 at 2 h, 16 mg/kg p.o.): 3.0 ± 1.7
Number of withdrawal responses, compared with Vehicle (p.o.), Δ% ([1]; Day 14 at 2 h, 16 mg/kg p.o.): −70%
Total duration of withdrawal responses (s), Mean ± s.e.m. ([1]; Day 14 at 2 h, 16 mg/kg p.o.): 0.8 ± 0.7 s
Total duration of withdrawal responses, compared with Vehicle (p.o.), Δ% ([1]; Day 14 at 2 h, 16 mg/kg p.o.): −64%
Latency to first paw-withdrawal (s), Mean ± s.e.m. ([1]; Day 14 at 2 h, 24 mg/kg p.o.): 280.0 ± 20.0 s
Latency to first paw-withdrawal, compared with Vehicle (p.o.), Δ% ([1]; Day 14 at 2 h, 24 mg/kg p.o.): +115%
Number of withdrawal responses, Mean ± s.e.m. ([1]; Day 14 at 2 h, 24 mg/kg p.o.): 0.9 ± 0.9
Number of withdrawal responses, compared with Vehicle (p.o.), Δ% ([1]; Day 14 at 2 h, 24 mg/kg p.o.): −91%
Total duration of withdrawal responses (s), Mean ± s.e.m. ([1]; Day 14 at 2 h, 24 mg/kg p.o.): 0.0 ± 0.0 s
Total duration of withdrawal responses, compared with Vehicle (p.o.), Δ% ([1]; Day 14 at 2 h, 24 mg/kg p.o.): −100%
thermal allodynia endpoint, comparison with morphine (128 mg/kg) ([1]; Day 18 (FIGS. 7-9), at both 16 and 24 mg/kg): outperformed morphine
Latency to first paw-withdrawal (s), Mean ± s.e.m. [1, 3]: 180.4 ± 26.5 s
Latency to first paw-withdrawal, compared with Vehicle (p.o.), Δ% [1, 3]: +92%
Number of withdrawal responses, Mean ± s.e.m. [1, 3]: 7.7 ± 2.8
Number of withdrawal responses, compared with Vehicle (p.o.), Δ% [1, 3]: −29%
Total duration of withdrawal responses (s), Mean ± s.e.m. [1, 3]: 1.3 ± 0.9 s
Total duration of withdrawal responses, compared with Vehicle (p.o.), Δ% [1, 3]: −88%
Latency to first paw-withdrawal (s), Mean ± s.e.m. [1, 4]: 257.0 ± 23.5 s
Latency to first paw-withdrawal, compared with Vehicle (p.o.), Δ% [1, 4]: +173%
Number of withdrawal responses, Mean ± s.e.m. [1, 4]: 1.3 ± 2.8
Number of withdrawal responses, compared with Vehicle (p.o.), Δ% [1, 4]: −88%
Total duration of withdrawal responses (s), Mean ± s.e.m. [1, 4]: 0.0 ± 0.0 s
Total duration of withdrawal responses, compared with Vehicle (p.o.), Δ% [1, 4]: −100%
Latency to first paw-withdrawal (s), Mean ± s.e.m. [1, 5]: 263.8 ± 24.3 s
Latency to first paw-withdrawal, compared with Vehicle (p.o.), Δ% [1, 5]: +180%
Number of withdrawal responses, Mean ± s.e.m. [1, 5]: 0.6 ± 0.5
Number of withdrawal responses, compared with Vehicle (p.o.), Δ% [1, 5]: −94%
Total duration of withdrawal responses (s), Mean ± s.e.m. [1, 5]: 0.0 ± 0.0 s
Total duration of withdrawal responses, compared with Vehicle (p.o.), Δ% [1, 5]: −100%
effect on the tactile allodynia endpoint ([2]; Day 14 and Day 18, compared to morphine): neither Compound A nor retigabine had much effect
Force inducing paw-withdrawal (g), Delta from baseline compared with Vehicle (p.o.), Δ ([2]; Day 14 at 2 h, 8 mg/kg p.o.): +6.7 g
Force inducing paw-withdrawal (g), Delta from baseline, Mean ± s.e.m. ([2]; Day 14 at 2 h, 8 mg/kg p.o.): +7.0 ± 2.5 g
Force inducing paw-withdrawal (g), Mean ± s.e.m. ([2]; Day 14 at 2 h, 8 mg/kg p.o.): 28.5 ± 3.4 g
Force inducing paw-withdrawal (g), Delta from baseline compared with Vehicle (p.o.), Δ ([2]; Day 14 at 2 h, 16 mg/kg p.o.): +5.1 g
Force inducing paw-withdrawal (g), Delta from baseline, Mean ± s.e.m. ([2]; Day 14 at 2 h, 16 mg/kg p.o.): +5.4 ± 2.1 g
Force inducing paw-withdrawal (g), Mean ± s.e.m. ([2]; Day 14 at 2 h, 16 mg/kg p.o.): 25.2 ± 1.9 g
Force inducing paw-withdrawal (g), Delta from baseline compared with Vehicle (p.o.), Δ ([2]; Day 14 at 2 h, 24 mg/kg p.o.): +7.2 g
Force inducing paw-withdrawal (g), Delta from baseline, Mean ± s.e.m. ([2]; Day 14 at 2 h, 24 mg/kg p.o.): +7.5 ± 3.1 g
Force inducing paw-withdrawal (g), Mean ± s.e.m. ([2]; Day 14 at 2 h, 24 mg/kg p.o.): 29.9 ± 2.9 g
Force inducing paw-withdrawal (g), Delta from baseline compared with Vehicle (p.o.), Δ [2, 3]: +7.8 g
Force inducing paw-withdrawal (g), Delta from baseline, Mean ± s.e.m. [2, 3]: +10.6 ± 3.5 g
Force inducing paw-withdrawal (g), Mean ± s.e.m. [2, 3]: 32.1 ± 3.6 g
Force inducing paw-withdrawal (g), Delta from baseline compared with Vehicle (p.o.), Δ [2, 4]: +2.6 g
Force inducing paw-withdrawal (g), Delta from baseline, Mean ± s.e.m. [2, 4]: +5.4 ± 2.1 g
Force inducing paw-withdrawal (g), Mean ± s.e.m. [2, 4]: 25.2 ± 2.0 g
Force inducing paw-withdrawal (g), Delta from baseline compared with Vehicle (p.o.), Δ [2, 5]: +8.7 g
Force inducing paw-withdrawal (g), Delta from baseline, Mean ± s.e.m. [2, 5]: +11.5 ± 3.0 g
Force inducing paw-withdrawal (g), Mean ± s.e.m. [2, 5]: 33.8 ± 3.6 g

Reference: patent US20240342156A1, “METHODS FOR TREATING PAIN” (Xenon Pharmaceuticals Inc., priority 2019, published 2024)
